These results are taken from patent publication US10457703B2, “Bile acid derivatives as FXR/TGR5 agonists and methods of use thereof” (ENANTA PHARMACEUTICALS, INC., priority 2015, dated 2019).

Molecules are shown by their SMILES. Some results are limits rather than exact numbers.

The target of this test is human FXR (NR1H4) (Homo sapiens (Human), UniProt Q96RI1). As to the kind of experiment: Human FXR (NR1H4) Assay (Gal4 promoter driven luciferase reporter, Indigo Bioscience kit).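 On Efficacy (%): 100% equals the efficacy of CDCA; efficacy normalized to CDCA set as 100%.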 The class given is cell-based. To be noted: for EC50: Human FXR (NR1H4) Assay, potency ranges; for Emax: read-out: Efficacy (%). The source says:
ASSAYS Human FXR (NR1H4) Assay
Determination of a ligand mediated Gal4 promoter driven transactivation to quantify ligand binding mediated activation of FXR. FXR Reporter Assay kit purchased from Indigo Bioscience (Catalogue number: IB00601) to determine the potency and efficacy of compound developed by Enanta that can induce FXR activation. The principle application of this reporter assay system is to quantify functional activity of human FXR. The assay utilizes non-human mammalian cells, CHO (Chinese hamster ovary) cells engineered to express human NR1H4 protein (referred to as FXR). Reporter cells also incorporate the cDNA encoding beetle luciferase which catalyzes the substrates and yields photon emission. Luminescence intensity of the reaction is quantified using a plate-reading luminometer, Envision. Reporter Cells include the luciferase reporter gene functionally linked to an FXR responsive promoter. Thus, quantifying changes in luciferase expression in the treated reporter cells provides a sensitive surrogate measure of the changes in FXR activity. […] The assay is according to the manufacturer's instructions. In brief, the assay was performed in white, 96 well plates using final volume of 100 uL containing cells with different doses of compounds. Retrieve Reporter Cells from −80° C. storage. Perform a rapid thaw of the frozen cells by transferring a 10 ml volume of 37° C. cell recovery medium into the tube of frozen cells. Recap the tube of Reporter Cells and immediately place it in a 37° C. water bath for 5-10 minutes. Retrieve the tube of Reporter Cell Suspension from the water bath. Sanitize the outside surface of the tube with a 70% alcohol swab, and then transfer it into the cell culture hood. Dispense 90 μl of cell suspension into each well of the 96-well Assay Plate. Transfer the plate into 37° C. incubator, allowing the cells adherent to the bottom of the well. Dilute compounds in Dilution Plate (DP), and administrate to cells at Assay Plate (AP). DMSO content of the samples was kept at 0.2%. Cells were incubated for additional 22 hours before luciferase activities were measured. Thirty minutes before intending to quantify FXR activity, remove Detection Substrate and Detection Buffer from the refrigerator and place them in a low-light area so that they may equilibrate to room temperature. Remove the plate's lid and discard all media contents by ejecting it into an appropriate waste container. Gently tap the inverted plate onto a clean absorbent paper towel to remove residual droplets. Cells will remain tightly adhered to well bottoms. Add 100 μl of luciferase detection reagent to each well of the assay plate. Allow the assay plate to rest at room temperature for at least 5 minutes following the addition of LDR. Set the instrument (Envision) to perform a single 5 second “plate shake” prior to reading the first assay well. Read time may be 0.5 second (500 mSec) per well.
For orientation: A reporter such as luciferase makes a cellular process visible.

Chain of human FXR (NR1H4) (Q96RI1 whole entry, the tested form may be a part): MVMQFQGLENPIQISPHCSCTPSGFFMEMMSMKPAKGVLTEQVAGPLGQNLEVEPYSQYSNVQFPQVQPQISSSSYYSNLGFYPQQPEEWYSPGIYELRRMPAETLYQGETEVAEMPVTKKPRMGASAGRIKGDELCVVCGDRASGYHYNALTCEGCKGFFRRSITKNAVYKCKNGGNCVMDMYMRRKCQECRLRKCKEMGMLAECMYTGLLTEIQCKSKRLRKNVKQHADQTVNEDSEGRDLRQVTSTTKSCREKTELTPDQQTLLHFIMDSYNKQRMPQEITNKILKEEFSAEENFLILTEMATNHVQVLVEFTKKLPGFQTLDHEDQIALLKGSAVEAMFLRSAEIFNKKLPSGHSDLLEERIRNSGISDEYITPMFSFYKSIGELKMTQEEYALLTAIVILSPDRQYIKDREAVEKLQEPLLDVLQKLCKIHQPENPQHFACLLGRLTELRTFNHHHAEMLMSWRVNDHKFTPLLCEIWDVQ

As for `CC[C@H]1[C@@H](O)[C@@H]2[C@H](CC[C@]3(C)[C@@H]([C@H](C)COC(=O)NS(=O)(=O)c4ccc(-c5ncco5)cc4)CC[C@@H]23)[C@@]2(C)CC[C@@H](O)C[C@@H]12` [Example 44-p], the half-maximal effective concentration (EC50) was below 100 nM and the Emax was 218%.

As to `CC[C@H]1[C@@H](O)[C@@H]2[C@H](CC[C@]3(C)[C@@H]([C@H](C)CCOC(=O)NS(=O)(=O)c4ccc(C(C)(C)C)cc4)CC[C@@H]23)[C@@]2(C)CC[C@@H](O)C[C@@H]12` [Example 45], the EC50 was below 100 nM and the Emax worked out at 235%.

Take `CC[C@H]1[C@@H](O)[C@@H]2[C@H](CC[C@]3(C)[C@@H]([C@H](C)CCOC(=O)NS(=O)(=O)c4ccc(F)cc4)CC[C@@H]23)[C@@]2(C)CC[C@@H](O)C[C@@H]12` [Example 46]: the EC50 was below 100 nM and the Emax stood at 267%.

`CC[C@H]1[C@@H](O)[C@@H]2[C@H](CC[C@]3(C)[C@@H]([C@H](C)CCOC(=O)NS(=O)(=O)C4CCCC4)CC[C@@H]23)[C@@]2(C)CC[C@@H](O)C[C@@H]12` [Example 47]: the half-maximal effective concentration (EC50) is below 100 nM and the Emax is 321%.

Regarding `CC[C@H]1[C@@H](O)[C@@H]2[C@H](CC[C@]3(C)[C@@H]([C@H](C)CCOC(=O)NS(=O)(=O)C(C)(C)C)CC[C@@H]23)[C@@]2(C)CC[C@@H](O)C[C@@H]12` [Example 48], the 50% effective concentration (EC50) is below 100 nM and the Emax worked out at 282%.

With `CC[C@H]1[C@@H](O)[C@@H]2[C@H](CC[C@]3(C)[C@@H]([C@H](C)CCOC(=O)NS(=O)(=O)C4(C)CC4)CC[C@@H]23)[C@@]2(C)CC[C@@H](O)C[C@@H]12` [Example 49], the EC50 is below 100 nM and the Emax amounted to 269%.

`CC[C@H]1[C@@H](O)[C@@H]2[C@H](CC[C@]3(C)[C@@H]([C@H](C)CCOC(=O)NS(=O)(=O)N(C)C)CC[C@@H]23)[C@@]2(C)CC[C@@H](O)C[C@@H]12` [Example 50]: the EC50 is below 100 nM and the Emax was 291%.

As for `CC[C@H]1[C@@H](O)[C@@H]2[C@H](CC[C@]3(C)[C@@H]([C@H](C)CCOC(=O)NS(=O)(=O)N4CCCC4)CC[C@@H]23)[C@@]2(C)CC[C@@H](O)C[C@@H]12` [Example 51], the concentration giving a half-maximal response (EC50) was below 100 nM and the Emax was 218%.

As for `CC[C@H]1[C@@H](O)[C@@H]2[C@H](CC[C@]3(C)[C@@H]([C@H](C)CCOC(=O)NS(=O)(=O)c4ccc(OC)cc4)CC[C@@H]23)[C@@]2(C)CC[C@@H](O)C[C@@H]12` [Example 52], the EC50 was below 100 nM and the Emax was determined as 226%.

For `CC[C@H]1[C@@H](O)[C@@H]2[C@H](CC[C@]3(C)[C@@H]([C@H](C)CCOC(=O)NS(=O)(=O)c4ccc(OC(F)(F)F)cc4)CC[C@@H]23)[C@@]2(C)CC[C@@H](O)C[C@@H]12` [Example 53], the EC50 was below 100 nM and the Emax was found to be 411%.

With `CC[C@H]1[C@@H](O)[C@@H]2[C@H](CC[C@]3(C)[C@@H]([C@H](C)CCOC(=O)NS(=O)(=O)c4cccc(C(C)(C)C)c4)CC[C@@H]23)[C@@]2(C)CC[C@@H](O)C[C@@H]12` [Example 54], the concentration giving a half-maximal response (EC50) fell in the range of 100 to 1000 nM and the Emax was 290%.

With `CC[C@H]1[C@@H](O)[C@@H]2[C@H](CC[C@]3(C)[C@@H]([C@H](C)CCOC(=O)NS(=O)(=O)c4ccc(C(C)(C)C(=O)OC)cc4)CC[C@@H]23)[C@@]2(C)CC[C@@H](O)C[C@@H]12` [Example 55], the EC50 was below 100 nM and the Emax is 258%.

`CC[C@H]1[C@@H](O)[C@@H]2[C@H](CC[C@]3(C)[C@@H]([C@H](C)CCOC(=O)NS(=O)(=O)Cc4ccccc4)CC[C@@H]23)[C@@]2(C)CC[C@@H](O)C[C@@H]12` [Example 56]: the EC50 is below 100 nM and the Emax amounted to 326%.

One may read the EC50 as the concentration that produces a half-maximal response. A high value points to lower potency in that assay.
